How the values were obtained:
in vitro [1] = conditions: rat, liver microsomes
in vitro [2] = conditions: human, hepatocytes
in vivo [3] = conditions: beagle, dog, iv, 5 mg/kg
in vitro [4] = conditions: rat, hepatocytes
in vivo [5] = conditions: beagle, dog, iv, 5 mg/kg; remark: listed apart in the source
in vivo [6] = conditions: Sprague-Dawley, rat, po, 50 mg/kg
in vivo [7] = conditions: Sprague-Dawley, rat, iv, 5 mg/kg
[8] = Half life in Beagle dog at 50 mg/kg/day, po by LC/MS analysis; assay type: ADME, organism-based, Canis lupus familiaris; conditions: in vivo
in vivo [9] = conditions: Sprague-Dawley, rat, po, 50 mg/kg; remark: listed apart in the source
in vivo [10] = conditions: cynomolgus monkey, iv, 5 mg/kg
in vivo [11] = conditions: cynomolgus monkey, po, 25 mg/kg
in vivo [12] = conditions: Sprague-Dawley, rat, iv, 5 mg/kg; remark: listed apart in the source
in vitro [13] = conditions: human, liver microsomes
in vivo [14] = conditions: cynomolgus monkey, po, 25 mg/kg; remark: listed apart in the source
[15] = Half life in overnight fasted cynomolgus monkey at 25 mg/kg/day, po by LC/MS analysis; assay type: ADME, organism-based, Macaca fascicularis; conditions: in vivo
[16] = Half life in human plasma at 30 to 60 mg; assay type: ADME, cell-free
in vivo [17] = conditions: Sprague-Dawley, rat, po, 50 mg/kg; remark: listed apart in the source
[18] = Half life in overnight fasted cynomolgus monkey at 5 mg/kg/day, iv by LC/MS analysis; assay type: ADME, organism-based, Macaca fascicularis; conditions: in vivo
in vivo [19] = conditions: Sprague-Dawley, rat, po, 50 mg/kg; remark: listed apart in the source
in vivo [20] = conditions: cynomolgus monkey, po, 25 mg/kg; remark: listed apart in the source
in vivo [21] = conditions: Sprague-Dawley, rat, iv, 5 mg/kg; remark: listed apart in the source
in vivo [22] = conditions: beagle, dog, iv, 5 mg/kg; remark: listed apart in the source
in vivo [23] = conditions: beagle, dog, po, 50 mg/kg
[24] = Terminal half life in patient plasma with advanced solid tumor administered at 75 mg; assay type: ADME; conditions: human, read-out: beta t1/2 (converted)

COc1cc2ncnc(Nc3ccc(F)c(Cl)c3)c2cc1NC(=O)/C=C/CN1CCCCC1 [DACOMITINIB ANHYDROUS]
half-life at 5 µM (in vitro [1]): > 0.667 h | half-life at 1 µM (in vitro [2]): 4.15 h | Vd at 144 h (in vivo [3]): 28 L/kg | half-life at 1 µM (in vitro [4]): 2.38 h | half-life (in vivo [5]): 15.9 h | bioavailability at 144 h (in vivo [6]): 80% | AUC at 144 h (in vivo [7]): 2100 ng·h/mL | half-life [8]: 20.9 h | half-life (in vivo [9]): 19.4 h | clearance at 144 h (in vivo [10]): 44.1 mL/min/kg | bioavailability at 144 h (in vivo [11]): 56% | Vd at 144 h (in vivo [12]): 34.2 L/kg | half-life at 5 µM (in vitro [13]): > 0.667 h | Cmax at 144 h (in vivo [14]): 220 ng/mL | half-life [15]: 12.1 h | half-life [16]: 59 h | AUC at 144 h (in vivo [17]): 20500 ng·h/mL | half-life [18]: 5.7 h | Cmax at 144 h (in vivo [19]): 630 ng/mL | AUC at 144 h (in vivo [20]): 5400 ng·h/mL | half-life (in vivo [21]): 9.8 h | clearance at 144 h (in vivo [22]): 24.4 mL/min/kg | AUC at 144 h (in vivo [23]): 25200 ng·h/mL

CCOc1cc2ncc(C#N)c(Nc3ccc(F)c(Cl)c3)c2cc1NC(=O)/C=C/CN(C)C [PELITINIB]
half-life [24]: 21.7 h

COc1cc2ncnc(Nc3ccc(F)c(Cl)c3)c2cc1OCCCN1CCOCC1 [GEFITINIB]
half-life at 5 µM (in vitro [1]): > 0.667 h | half-life at 1 µM (in vitro [2]): 3.75 h | half-life at 1 µM (in vitro [4]): 1.68 h | half-life at 5 µM (in vitro [13]): > 0.667 h
